ChEMBL document CHEMBL3244041, “Synthesis and structure-activity relationships of 5H,11 H-[I]benzopyrano[4,3-g]benzopyran-9-carboxylic acids” (1977)

What was measured:
[1] = tested on: Rattus norvegicus; assay: Antiallergic activity in adrenalectomized Sprague-Dawley rat assessed as inhibition of ovalbumin-induced passive cutaneous anaphylaxis reaction at 1 mg/kg, iv after 12 days by Evans blue staining; assay type: functional; conditions: 288 h
[2] = tested on: Rattus norvegicus; assay: Antiallergic activity in iv dosed adrenalectomized Sprague-Dawley rat assessed as inhibition of ovalbumin-induced passive cutaneous anaphylaxis reaction after 12 days by Evans blue staining; assay type: functional; conditions: 288 h

Row | Structure (SMILES) | inhibition in vivo at 1 mg/kg [1] [%] | ED50 [2] [mg/kg]
1 | NCCO.O=C(O)c1cc(=O)c2cc3c(oc(=O)c4ccccc43)c(O)c2o1 | 55.6 | 2
2 | CC(=O)Oc1ccc2c(c1)C(C)(C)Oc1cc3oc(C(=O)O)cc(=O)c3cc1-2 | 73.4 | 
3 | O=C(O)c1cc(=O)c2cc3c(c(O)c2o1)OCc1ccccc1-3 | 33.4 | 
4 | CC1(C)Oc2cc3oc(C(=O)O)cc(=O)c3cc2-c2ccccc21.NCCO | 70.3 | 0.5
5 | O=C([O-])c1cc(=O)c2cc3c(cc2o1)OCc1ccccc1-3.[Na+] | 64.3 | 0.3
6 | COc1cc2c(cc1Br)-c1cc3c(=O)cc(C(=O)O)oc3cc1OC2(C)C | 0 | 
7 | CC1(C)Oc2cc3oc(C(=O)O)cc(=O)c3cc2-c2ccc(N)cc21 | 77.8 | 
8 | CC1(C)Oc2cc3oc(C(=O)O)cc(=O)c3cc2-c2ccc([N+](=O)[O-])cc21 | 50 | 
9 | CCCCC1(CCCC)Oc2cc3oc(C(=O)O)cc(=O)c3cc2-c2ccccc21 | 25 | 
10 | Cc1c2c(cc3oc(C(=O)O)cc(=O)c13)OC(C)(C)c1ccccc1-2 | 0 | 
11 | COc1c2c(cc3c(=O)cc(C(=O)O)oc13)-c1ccccc1CO2 | 50 | 
12 | CC1(C)Oc2cc3oc(C(=O)O)cc(=O)c3cc2-c2ccc(S(=O)(=O)O)cc21 | 0 | 
13 | CC1(C)Oc2cc3oc(C(=O)O)cc(=O)c3cc2-c2ccc(OCCO)cc21.NCCO | 82.8 | 0.11
14 | CC1(C)Oc2c(cc3c(=O)cc(C(=O)O)oc3c2[N+](=O)[O-])-c2ccccc21 | 20 | 
15 | CC1(C)Oc2cc3oc(C(=O)O)cc(=O)c3c(O)c2-c2ccccc21 | 0 | 
16 | COc1cccc2c1COc1cc3oc(C(=O)O)cc(=O)c3cc1-2 | 0 | 
17 | COc1cc2c(cc1OC)C(C)(C)Oc1cc3oc(C(=O)O)cc(=O)c3cc1-2 | 67.7 | 
18 | CC1(C)Oc2c(cc3c(=O)cc(C(=O)O)oc3c2N)-c2ccccc21 | 64.3 | 
19 | CC1(C)Oc2cc3oc(C(=O)O)cc(=O)c3cc2-c2ccc(Cl)cc21 | 60 | 
20 | COc1ccc2c(c1)C(C)(C)Oc1cc3oc(C(=O)O)cc(=O)c3cc1-2 | 66.7 | 
21 | CC1(C)Oc2cc3oc(C(=O)[O-])cc(=O)c3cc2-c2ccc(O)cc21.[Na+] | 77.8 | 0.3
22 | O=C([O-])c1cc(=O)c2c(OCC(O)COc3cccc4oc(C(=O)[O-])cc(=O)c34)cccc2o1.[Na+].[Na+] [CROMOLYN SODIUM] | 26.7 | 2.88
23 | CCCOc1ccc2c(c1)C(C)(C)Oc1cc3oc(C(=O)O)cc(=O)c3cc1-2 | 40 | 
24 | CC1(C)Oc2c(cc3c(=O)cc(C(=O)O)oc3c2Cl)-c2ccccc21 | 66.7 | 
25 | CC1(C)Oc2cc3oc(C(=O)O)cc(=O)c3cc2-c2ccc(F)cc21.NCCO | 60 | 0.87
26 | CC1(C)Oc2cc3oc(C(=O)O)cc(=O)c3cc2-c2cc(Cl)ccc21 | 25 | 
